Reference: ChEMBL document CHEMBL5584362, “Sucurchalasins A and B, Sulfur-Containing Heterodimers of a Cytochalasan and a Macrolide from the Endophytic Fungus Aspergillus spelaeus GDGJ-286” (J Nat Prod, 2024)
Converted amounts (≈) assume the structure as drawn. The source made the active and inactive calls. The rule behind the calls is not given here.

system: Salmonella typhi; assay: Antibacterial activity against Salmonella typhi at 25 ug/ml measured after 20 to 45 mins by broth microdilution method; assay type: functional, organism-based; details: Salmonella enterica subsp. enterica serovar Typhi; dose 25.0 µg/ml, time 20-45 min

Row | Compound | Activity
1 | CC1=C[C@@H]2/C=C(\C)CC[C@@H](O)C(=O)C[C@@H](S[C@H]3CCC[C@H](C)OC(=O)Cc4cc(O)cc(O)c4C(=O)C3)C(=O)[C@]23C(=O)N[C@@H](CC(C)C)[C@@H]3[C@@H]1C | inactive

system: A2780; assay: Cytotoxicity against human A2780 cells by MTT assay; assay type: functional, cell-based; details: not given

Row | Compound | IC50
2 | CC1=C[C@@H]2/C=C(\C)CC[C@@H](O)C(=O)C[C@@H](S[C@H]3CCC[C@H](C)OC(=O)Cc4cc(O)cc(O)c4C(=O)C3)C(=O)[C@]23C(=O)N[C@@H](CC(C)C)[C@@H]3[C@@H]1C | 8.3 µM

system: SK-OV-3; assay: Cytotoxicity against human SK-OV-3 cells by MTT assay; assay type: functional, cell-based; details: not given

Row | Compound | IC50
3 | CC1=C[C@@H]2/C=C(\C)CC[C@@H](O)C(=O)C[C@@H](S[C@H]3CCC[C@H](C)OC(=O)Cc4cc(O)cc(O)c4C(=O)C3)C(=O)[C@]23C(=O)N[C@@H](CC(C)C)[C@@H]3[C@@H]1C | 20 µM

system: HeLa; assay: Cytotoxicity against human HeLa cells by MTT assay; assay type: functional, cell-based; details: not given

Row | Compound | IC50
4 | CC1=C[C@@H]2/C=C(\C)CC[C@@H](O)C(=O)C[C@@H](S[C@H]3CCC[C@H](C)OC(=O)Cc4cc(O)cc(O)c4C(=O)C3)C(=O)[C@]23C(=O)N[C@@H](CC(C)C)[C@@H]3[C@@H]1C | 23 µM

system: HepG2; assay: Cytotoxicity against human HepG2 cells by MTT assay; assay type: functional, cell-based; details: not given

Row | Compound | IC50
5 | CC1=C[C@@H]2/C=C(\C)CC[C@@H](O)C(=O)C[C@@H](S[C@H]3CCC[C@H](C)OC(=O)Cc4cc(O)cc(O)c4C(=O)C3)C(=O)[C@]23C(=O)N[C@@H](CC(C)C)[C@@H]3[C@@H]1C | 11 µM

system: A2780; assay: Induction of apoptosis in human A2780 cells assessed as chromatin condensation at 1 to 9 uM measured after 48 hrs by Hoechst 33258 staining based assay; assay type: functional, cell-based; details: dose 1-9 µM

Row | Compound | Activity
6 | CC1=C[C@@H]2/C=C(\C)CC[C@@H](O)C(=O)C[C@@H](S[C@H]3CCC[C@H](C)OC(=O)Cc4cc(O)cc(O)c4C(=O)C3)C(=O)[C@]23C(=O)N[C@@H](CC(C)C)[C@@H]3[C@@H]1C | Active

system: A2780; assay: Induction of apoptosis in human A2780 cells assessed as chromatin fragmentation at 1 to 9 uM measured after 48 hrs by Hoechst 33258 staining based assay; assay type: functional, cell-based; details: dose 1-9 µM

Row | Compound | Activity
7 | CC1=C[C@@H]2/C=C(\C)CC[C@@H](O)C(=O)C[C@@H](S[C@H]3CCC[C@H](C)OC(=O)Cc4cc(O)cc(O)c4C(=O)C3)C(=O)[C@]23C(=O)N[C@@H](CC(C)C)[C@@H]3[C@@H]1C | Active

system: A2780; assay: Induction of apoptosis in human A2780 cells assessed as increase in early apoptotic cells measured after 48 hrs by Annexin V-FITC/PI staining based FACS analysis; assay type: functional, cell-based; details: dose 1-9 µM

Row | Compound | Activity
8 | CC1=C[C@@H]2/C=C(\C)CC[C@@H](O)C(=O)C[C@@H](S[C@H]3CCC[C@H](C)OC(=O)Cc4cc(O)cc(O)c4C(=O)C3)C(=O)[C@]23C(=O)N[C@@H](CC(C)C)[C@@H]3[C@@H]1C | Dose-Dependent Effect

system: A2780; assay: Induction of apoptosis in human A2780 cells assessed as increase in late apoptotic cells measured after 48 hrs by Annexin V-FITC/PI staining based FACS analysis; assay type: functional, cell-based; details: dose 1-9 µM

Row | Compound | Activity
9 | CC1=C[C@@H]2/C=C(\C)CC[C@@H](O)C(=O)C[C@@H](S[C@H]3CCC[C@H](C)OC(=O)Cc4cc(O)cc(O)c4C(=O)C3)C(=O)[C@]23C(=O)N[C@@H](CC(C)C)[C@@H]3[C@@H]1C | Dose-Dependent Effect

system: A2780; assay: Induction of apoptosis in human A2780 cells assessed as viable cells at 1 uM measured after 48 hrs by Annexin V-FITC/PI staining based FACS analysis (reference value: 92.6 to 92.8%); assay type: functional; details: read-out: Activity

Row | Compound | viability at 1 µM
10 | CC1=C[C@@H]2/C=C(\C)CC[C@@H](O)C(=O)C[C@@H](S[C@H]3CCC[C@H](C)OC(=O)Cc4cc(O)cc(O)c4C(=O)C3)C(=O)[C@]23C(=O)N[C@@H](CC(C)C)[C@@H]3[C@@H]1C | 91%

system: A2780; assay: Induction of apoptosis in human A2780 cells assessed as early apoptotic cells at 1 uM measured after 48 hrs by Annexin V-FITC/PI staining based FACS analysis (reference value: 1.68 to 1.9%); assay type: functional; details: not given

Row | Compound | Activity
11 | CC1=C[C@@H]2/C=C(\C)CC[C@@H](O)C(=O)C[C@@H](S[C@H]3CCC[C@H](C)OC(=O)Cc4cc(O)cc(O)c4C(=O)C3)C(=O)[C@]23C(=O)N[C@@H](CC(C)C)[C@@H]3[C@@H]1C | 1.4%

system: A2780; assay: Induction of apoptosis in human A2780 cells assessed as late apoptotic cells at 1 uM measured after 48 hrs by Annexin V-FITC/PI staining based FACS analysis (reference value: 2.32 to 2.4%); assay type: functional; details: not given

Row | Compound | Activity
12 | CC1=C[C@@H]2/C=C(\C)CC[C@@H](O)C(=O)C[C@@H](S[C@H]3CCC[C@H](C)OC(=O)Cc4cc(O)cc(O)c4C(=O)C3)C(=O)[C@]23C(=O)N[C@@H](CC(C)C)[C@@H]3[C@@H]1C | 3.56%

system: A2780; assay: Induction of apoptosis in human A2780 cells assessed as necrotic cells at 1 uM measured after 48 hrs by Annexin V-FITC/PI staining based FACS analysis (reference value: 1.34 to 3.3%); assay type: functional; details: not given

Row | Compound | Activity
13 | CC1=C[C@@H]2/C=C(\C)CC[C@@H](O)C(=O)C[C@@H](S[C@H]3CCC[C@H](C)OC(=O)Cc4cc(O)cc(O)c4C(=O)C3)C(=O)[C@]23C(=O)N[C@@H](CC(C)C)[C@@H]3[C@@H]1C | 4.07%

system: A2780; assay: Induction of apoptosis in human A2780 cells assessed as viable cells at 3 uM measured after 48 hrs by Annexin V-FITC/PI staining based FACS analysis (reference value: 92.6 to 92.8%); assay type: functional; details: read-out: Activity

Row | Compound | viability at 3 µM
14 | CC1=C[C@@H]2/C=C(\C)CC[C@@H](O)C(=O)C[C@@H](S[C@H]3CCC[C@H](C)OC(=O)Cc4cc(O)cc(O)c4C(=O)C3)C(=O)[C@]23C(=O)N[C@@H](CC(C)C)[C@@H]3[C@@H]1C | 87%

system: A2780; assay: Induction of apoptosis in human A2780 cells assessed as early apoptotic cells at 3 uM measured after 48 hrs by Annexin V-FITC/PI staining based FACS analysis (reference value: 1.68 to 1.9%); assay type: functional; details: not given

Row | Compound | Activity
15 | CC1=C[C@@H]2/C=C(\C)CC[C@@H](O)C(=O)C[C@@H](S[C@H]3CCC[C@H](C)OC(=O)Cc4cc(O)cc(O)c4C(=O)C3)C(=O)[C@]23C(=O)N[C@@H](CC(C)C)[C@@H]3[C@@H]1C | 5.4%

system: A2780; assay: Induction of apoptosis in human A2780 cells assessed as late apoptotic cells at 3 uM measured after 48 hrs by Annexin V-FITC/PI staining based FACS analysis (reference value: 2.32 to 2.4%); assay type: functional; details: not given

Row | Compound | Activity
16 | CC1=C[C@@H]2/C=C(\C)CC[C@@H](O)C(=O)C[C@@H](S[C@H]3CCC[C@H](C)OC(=O)Cc4cc(O)cc(O)c4C(=O)C3)C(=O)[C@]23C(=O)N[C@@H](CC(C)C)[C@@H]3[C@@H]1C | 5.46%

system: A2780; assay: Induction of apoptosis in human A2780 cells assessed as necrotic cells at 3 uM measured after 48 hrs by Annexin V-FITC/PI staining based FACS analysis (reference value: 1.34 to 3.3%); assay type: functional; details: not given

Row | Compound | Activity
17 | CC1=C[C@@H]2/C=C(\C)CC[C@@H](O)C(=O)C[C@@H](S[C@H]3CCC[C@H](C)OC(=O)Cc4cc(O)cc(O)c4C(=O)C3)C(=O)[C@]23C(=O)N[C@@H](CC(C)C)[C@@H]3[C@@H]1C | 2.16%

system: A2780; assay: Induction of apoptosis in human A2780 cells assessed as viable cells at 9 uM measured after 48 hrs by Annexin V-FITC/PI staining based FACS analysis (reference value: 92.6 to 92.8%); assay type: functional; details: read-out: Activity

Row | Compound | viability at 9 µM
18 | CC1=C[C@@H]2/C=C(\C)CC[C@@H](O)C(=O)C[C@@H](S[C@H]3CCC[C@H](C)OC(=O)Cc4cc(O)cc(O)c4C(=O)C3)C(=O)[C@]23C(=O)N[C@@H](CC(C)C)[C@@H]3[C@@H]1C | 26%

system: A2780; assay: Induction of apoptosis in human A2780 cells assessed as early apoptotic cells at 9 uM measured after 48 hrs by Annexin V-FITC/PI staining based FACS analysis (reference value: 1.68 to 1.9%); assay type: functional; details: not given

Row | Compound | Activity
19 | CC1=C[C@@H]2/C=C(\C)CC[C@@H](O)C(=O)C[C@@H](S[C@H]3CCC[C@H](C)OC(=O)Cc4cc(O)cc(O)c4C(=O)C3)C(=O)[C@]23C(=O)N[C@@H](CC(C)C)[C@@H]3[C@@H]1C | 53.2%

system: A2780; assay: Induction of apoptosis in human A2780 cells assessed as late apoptotic cells at 9 uM measured after 48 hrs by Annexin V-FITC/PI staining based FACS analysis (reference value: 2.32 to 2.4%); assay type: functional; details: not given

Row | Compound | Activity
20 | CC1=C[C@@H]2/C=C(\C)CC[C@@H](O)C(=O)C[C@@H](S[C@H]3CCC[C@H](C)OC(=O)Cc4cc(O)cc(O)c4C(=O)C3)C(=O)[C@]23C(=O)N[C@@H](CC(C)C)[C@@H]3[C@@H]1C | 19.1%

system: A2780; assay: Induction of apoptosis in human A2780 cells assessed as necrotic cells at 9 uM measured after 48 hrs by Annexin V-FITC/PI staining based FACS analysis (reference value: 1.34 to 3.3%); assay type: functional; details: not given

Row | Compound | Activity
21 | CC1=C[C@@H]2/C=C(\C)CC[C@@H](O)C(=O)C[C@@H](S[C@H]3CCC[C@H](C)OC(=O)Cc4cc(O)cc(O)c4C(=O)C3)C(=O)[C@]23C(=O)N[C@@H](CC(C)C)[C@@H]3[C@@H]1C | 1.87%

system: Shigella dysenteriae; assay: Antibacterial activity against Shigella dysenteriae measured after 20 to 45 mins by broth microdilution method; assay type: functional; details: time 20-45 min

Row | Compound | MIC
22 | CC1=C[C@@H]2/C=C(\C)CC[C@@H](O)C(=O)C[C@@H](S[C@H]3CCC[C@H](C)OC(=O)Cc4cc(O)cc(O)c4C(=O)C3)C(=O)[C@]23C(=O)N[C@@H](CC(C)C)[C@@H]3[C@@H]1C | 13 µg/mL (≈ 18 µM)

system: Enterococcus faecalis; assay: Antibacterial activity against Enterococcus faecalis measured after 20 to 45 mins by broth microdilution method; assay type: functional; details: time 20-45 min

Row | Compound | MIC
23 | CC1=C[C@@H]2/C=C(\C)CC[C@@H](O)C(=O)C[C@@H](S[C@H]3CCC[C@H](C)OC(=O)Cc4cc(O)cc(O)c4C(=O)C3)C(=O)[C@]23C(=O)N[C@@H](CC(C)C)[C@@H]3[C@@H]1C | 3.1 µg/mL (≈ 4.28 µM)

system: Bacillus subtilis; assay: Antibacterial activity against Bacillus subtilis measured after 20 to 45 mins by broth microdilution method; assay type: functional; details: time 20-45 min

Row | Compound | MIC
24 | CC1=C[C@@H]2/C=C(\C)CC[C@@H](O)C(=O)C[C@@H](S[C@H]3CCC[C@H](C)OC(=O)Cc4cc(O)cc(O)c4C(=O)C3)C(=O)[C@]23C(=O)N[C@@H](CC(C)C)[C@@H]3[C@@H]1C | 6.3 µg/mL (≈ 8.7 µM)

system: Vibrio parahaemolyticus; assay: Antibacterial activity against Vibrio parahaemolyticus at 25 ug/ml measured after 20 to 45 mins by broth microdilution method; assay type: functional, organism-based; details: dose 25.0 µg/ml, time 20-45 min

Row | Compound | Activity
25 | CC1=C[C@@H]2/C=C(\C)CC[C@@H](O)C(=O)C[C@@H](S[C@H]3CCC[C@H](C)OC(=O)Cc4cc(O)cc(O)c4C(=O)C3)C(=O)[C@]23C(=O)N[C@@H](CC(C)C)[C@@H]3[C@@H]1C | inactive

system: Staphylococcus aureus; assay: Antibacterial activity against Staphylococcus aureus at 25 ug/ml measured after 20 to 45 mins by broth microdilution method; assay type: functional, organism-based; details: dose 25.0 µg/ml, time 20-45 min

Row | Compound | Activity
26 | CC1=C[C@@H]2/C=C(\C)CC[C@@H](O)C(=O)C[C@@H](S[C@H]3CCC[C@H](C)OC(=O)Cc4cc(O)cc(O)c4C(=O)C3)C(=O)[C@]23C(=O)N[C@@H](CC(C)C)[C@@H]3[C@@H]1C | inactive

system: Escherichia coli; assay: Antibacterial activity against Escherichia coli at 25 ug/ml measured after 20 to 45 mins by broth microdilution method; assay type: functional, organism-based; details: dose 25.0 µg/ml, time 20-45 min

Row | Compound | Activity
27 | CC1=C[C@@H]2/C=C(\C)CC[C@@H](O)C(=O)C[C@@H](S[C@H]3CCC[C@H](C)OC(=O)Cc4cc(O)cc(O)c4C(=O)C3)C(=O)[C@]23C(=O)N[C@@H](CC(C)C)[C@@H]3[C@@H]1C | inactive
